In ChEMBL document CHEMBL1132953, “Design and synthesis of pyrrolidine-5,5-trans-lactams (5-oxo-hexahydro-pyrrolo[3,2-b]pyrroles) as novel mechanism-based inhibitors of human cytomegalovirus protease. 1. The alpha-methyl-trans-lactam template” (J Med Chem, 2000) one finds IC50 data, which are given here for one molecule.

Experiment [1] deals with Prothrombin (Homo sapiens, UniProt P00734). Put plainly: Tested for inhibitory activity against Thrombin.
Experiment [2] in a line: Tested for inhibitory activity against elastase.

Consider `CC(=O)OCC(=O)N1C(=O)C[C@@H]2[C@@H]1CCN2C(=O)OCc1ccccc1`, for which the IC50 in experiment [1] amounted to 6.2 µM; in experiment [2] it was 7.58 µM.
